Measured values: article PMC5770468, “Cardiac glycoside/aglycones inhibit HIV-1 gene expression by a mechanism requiring MEK1/2-ERK1/2 signaling” (Scientific Reports, 2018)

How the values were obtained:
[1] = system: HIV-1 (Gag) gene expression; conditions: HeLa rtTA-HIV-ΔMls cells; read-out: IC90, HIV-1 (Gag) gene expression (digoxin, published); cited from earlier work
[2] = system: HeLa rtTA-HIV(Gag-GFP) cells; format: cell-based, human; conditions: 220 nM
Experimental: Using the same methods and conditions described for HeLa rtTA-HIV-ΔMls cells, HeLa rtTA-HIV(Gag-GFP) cells were seeded in 48-/12-well plates and pretreated with/without pathway inhibitor prior to treatment with drug/compounds and Dox. Equal concentrations of DMSO were present in each experiment. HIV-1 gene expression was determined by detecting Gag-GFP fluorescence in cells by plate scans using a Typhoon Imager 9400 (Amersham Biosciences) or Typhoon FLA 9400 (GE) on ImageQuant, cell lysates by SDS-PAGE captured on ChemiDoc MP, or cell lysates by p24^CA ELISA. Before quantification, cells were washed with warm PBS and either scanned live (and harvested for protein analyses) or fixed in 3.7% paraformaldehyde/formaldehyde-PBS for subsequent analyses. Data from cell scans and SDS-PAGEs were quantitated using ImageJ and Image Lab software, respectively. To determine which pathway signal was used by a CS to inhibit HIV-1 gene expression, cells treated with CS were pre-treated with a specific pathway inhibitor and monitored for recovery of Gag-GFP expression. […] In parallel, the cell viability of each pathway inhibitor and CS treatment combination were monitored by cell density staining of fixed cells with 2% methylene blue (BioBasic, #MB0342) in 50% ethanol and read at OD664 on a TECAN Infinite® 200 PRO or Biotek Cytation5. […]

Row | SMILES | IC90 [1] [nM] | effect on cell density [2]
1 | C[C@H]1O[C@@H](O[C@H]2[C@@H](O)C[C@H](O[C@H]3[C@@H](O)C[C@H](O[C@H]4CC[C@@]5(C)[C@H](CC[C@@H]6[C@@H]5C[C@@H](O)[C@]5(C)[C@@H](C7=CC(=O)OC7)CC[C@]65O)C4)O[C@@H]3C)O[C@@H]2C)C[C@H](O)[C@@H]1O [Digoxin] | 100 | 
2 | COc1ccc(C[C@H]2NC[C@H](O)[C@H]2OC(C)=O)cc1 [anisomycin, Anisomycin] |  | little to no effect
